This note sets out measurements from US20240254119A1 (THIRD HARMONIC BIO, INC., priority 2022, published 2024).

The nature of one data set: Kinetic solubility assay. The following applies: kinetic solubility, 50 mM PB (pH 7.4), shaken 24 hours at RT. The format is physicochemical. Put shortly: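 Test compounds from 10 mM DMSO stock were diluted in 50 mM phosphate buffer, pH 7.4, and shaken for 24 h at RT. After PTFE filtration and centrifugation, filtrate concentration was quantified by UPLC-UV/HPLC-UV against a standard curve.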

For data set [1], the target named is T1, wtKIT (Homo sapiens, UniProt P10721).
T1 construct: 1888289AM in the reaction mixtures
T1 sequence (P10721 26-976): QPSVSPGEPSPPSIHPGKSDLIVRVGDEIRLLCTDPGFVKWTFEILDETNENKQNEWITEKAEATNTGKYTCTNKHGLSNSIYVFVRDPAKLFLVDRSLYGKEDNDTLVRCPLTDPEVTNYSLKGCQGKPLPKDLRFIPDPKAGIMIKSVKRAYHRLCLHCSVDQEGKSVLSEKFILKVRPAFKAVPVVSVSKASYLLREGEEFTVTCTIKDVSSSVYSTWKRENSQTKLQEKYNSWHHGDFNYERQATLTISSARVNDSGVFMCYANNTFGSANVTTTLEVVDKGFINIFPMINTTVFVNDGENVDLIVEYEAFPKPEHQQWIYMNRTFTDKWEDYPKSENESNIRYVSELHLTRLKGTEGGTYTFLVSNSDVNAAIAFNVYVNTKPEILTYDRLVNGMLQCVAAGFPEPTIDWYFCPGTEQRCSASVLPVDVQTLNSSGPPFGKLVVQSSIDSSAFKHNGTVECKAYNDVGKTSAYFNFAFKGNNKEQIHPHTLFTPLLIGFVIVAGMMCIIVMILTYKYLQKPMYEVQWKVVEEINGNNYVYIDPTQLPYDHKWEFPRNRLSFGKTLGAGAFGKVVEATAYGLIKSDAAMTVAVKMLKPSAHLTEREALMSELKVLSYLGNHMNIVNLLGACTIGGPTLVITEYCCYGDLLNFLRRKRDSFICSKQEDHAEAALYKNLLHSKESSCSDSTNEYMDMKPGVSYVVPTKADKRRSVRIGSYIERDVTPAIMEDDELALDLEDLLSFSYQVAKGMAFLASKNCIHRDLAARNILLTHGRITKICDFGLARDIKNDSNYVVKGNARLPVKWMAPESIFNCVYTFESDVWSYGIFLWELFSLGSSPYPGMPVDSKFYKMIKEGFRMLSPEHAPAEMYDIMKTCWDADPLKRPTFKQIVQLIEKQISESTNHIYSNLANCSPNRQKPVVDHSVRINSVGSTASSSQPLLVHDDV
In words: Caliper biochemical assay, wtKIT. The conditions noted are these: Table 6, read-out: KIT Biochemical IC50 avg. The gist of the method: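 Enzyme (5.0 nM wtKIT), 1 μM FAM-labelled peptide, 400 μM ATP and 10 mM MnCl2 in HEPES pH 7.5 with 1% DMSO, incubated 3 h at 25° C. EDTA quench; substrate and phosphoproduct separated by microfluidic electrophoresis and quantified by fluorescence.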

For the next data set, the target named is T2, PDGFRα (Homo sapiens, UniProt P16234).
T2 construct: purchased Millipore 14-467 (lot 26321_ACTI)
T2 sequence (P16234 24-1089): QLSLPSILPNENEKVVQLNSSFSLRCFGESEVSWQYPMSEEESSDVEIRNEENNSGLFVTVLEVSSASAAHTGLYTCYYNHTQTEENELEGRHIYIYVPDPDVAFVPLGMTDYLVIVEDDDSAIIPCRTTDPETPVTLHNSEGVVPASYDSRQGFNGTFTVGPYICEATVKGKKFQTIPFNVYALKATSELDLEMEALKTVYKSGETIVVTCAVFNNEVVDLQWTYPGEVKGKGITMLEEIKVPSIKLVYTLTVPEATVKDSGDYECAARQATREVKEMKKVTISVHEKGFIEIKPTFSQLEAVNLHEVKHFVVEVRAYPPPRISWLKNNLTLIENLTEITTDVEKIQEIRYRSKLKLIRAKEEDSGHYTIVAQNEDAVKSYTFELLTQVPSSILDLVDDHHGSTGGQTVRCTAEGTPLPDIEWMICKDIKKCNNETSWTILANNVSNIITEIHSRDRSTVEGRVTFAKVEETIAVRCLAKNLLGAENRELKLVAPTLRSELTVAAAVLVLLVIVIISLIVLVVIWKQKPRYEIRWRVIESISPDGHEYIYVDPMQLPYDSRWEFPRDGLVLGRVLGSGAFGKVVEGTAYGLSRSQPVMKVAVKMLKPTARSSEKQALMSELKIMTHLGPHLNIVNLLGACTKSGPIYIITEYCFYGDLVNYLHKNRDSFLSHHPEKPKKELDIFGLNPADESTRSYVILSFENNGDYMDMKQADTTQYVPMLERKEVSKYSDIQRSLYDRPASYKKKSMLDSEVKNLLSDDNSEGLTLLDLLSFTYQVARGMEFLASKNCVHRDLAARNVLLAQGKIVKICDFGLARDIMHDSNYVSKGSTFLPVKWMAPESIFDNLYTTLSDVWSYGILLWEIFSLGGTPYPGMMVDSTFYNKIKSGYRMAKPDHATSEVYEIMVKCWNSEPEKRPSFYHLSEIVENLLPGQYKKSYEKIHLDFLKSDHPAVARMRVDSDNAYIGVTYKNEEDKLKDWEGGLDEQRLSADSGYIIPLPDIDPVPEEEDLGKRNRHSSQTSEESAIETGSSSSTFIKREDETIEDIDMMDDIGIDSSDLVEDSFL
In words: Caliper biochemical assay, PDGFRα. The conditions noted are these: Table 6. The gist of the method: (§1)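 Kinase, FAM-labelled peptide substrate, ATP and Mn^2+ incubated with compound for 3 h at 25° C, then quenched with EDTA buffer. Substrate and phosphorylated product separated by microfluidic electrophoresis and quantified by fluorescence intensity; no-enzyme wells define 100% inhibition.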

The target of a further data set is T3, CSF-1R (Homo sapiens, UniProt P07333).
T3 construct: purchased Invitrogen PV3249 (lot 662393N)
T3 sequence (P07333 20-972): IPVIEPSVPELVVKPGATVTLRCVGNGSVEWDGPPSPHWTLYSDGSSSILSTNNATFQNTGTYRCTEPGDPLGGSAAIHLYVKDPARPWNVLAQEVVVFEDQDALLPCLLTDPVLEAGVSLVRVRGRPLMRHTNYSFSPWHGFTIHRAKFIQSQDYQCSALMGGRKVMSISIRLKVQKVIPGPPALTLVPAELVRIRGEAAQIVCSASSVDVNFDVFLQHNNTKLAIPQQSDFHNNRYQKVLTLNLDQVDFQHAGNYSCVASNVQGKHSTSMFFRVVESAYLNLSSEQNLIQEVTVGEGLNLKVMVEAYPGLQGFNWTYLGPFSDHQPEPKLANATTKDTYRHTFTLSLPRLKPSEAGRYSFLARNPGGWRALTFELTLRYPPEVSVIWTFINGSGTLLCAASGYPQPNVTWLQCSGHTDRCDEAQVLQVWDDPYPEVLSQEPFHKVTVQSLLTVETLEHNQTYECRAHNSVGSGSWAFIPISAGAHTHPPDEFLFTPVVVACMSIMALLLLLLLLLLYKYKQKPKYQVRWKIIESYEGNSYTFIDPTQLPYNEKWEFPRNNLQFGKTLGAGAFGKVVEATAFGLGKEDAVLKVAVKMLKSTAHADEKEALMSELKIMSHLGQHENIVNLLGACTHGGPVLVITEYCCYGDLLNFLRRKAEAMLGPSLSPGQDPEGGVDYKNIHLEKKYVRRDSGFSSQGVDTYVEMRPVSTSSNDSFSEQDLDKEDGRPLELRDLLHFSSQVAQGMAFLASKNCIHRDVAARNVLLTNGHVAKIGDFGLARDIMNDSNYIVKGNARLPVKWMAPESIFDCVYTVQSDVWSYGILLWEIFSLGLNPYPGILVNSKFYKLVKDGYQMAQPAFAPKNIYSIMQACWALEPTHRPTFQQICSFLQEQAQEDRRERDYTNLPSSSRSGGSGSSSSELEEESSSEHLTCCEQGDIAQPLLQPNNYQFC
In words: Caliper biochemical assay, CSF-1R. The conditions noted are these: Table 6. Put shortly:
as §1

Data set [2] has as its target T1, wtKIT. In words: HTRF biochemical assay, wtKIT (phosphorylation of a peptide substrate). The conditions noted are these: Table 4. The gist of the method:
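wtKIT (5.0 nM) phosphorylating 1 µM FAM-labelled peptide with 400 µM ATP and 10 mM MnCl2 in 100 mM HEPES pH 7.5, 1% DMSO, 3 h at 25 °C. EDTA quench; phosphopeptide detected with anti-phosphotyrosine antibody by HTRF. Enzyme titrated for 10-20% substrate conversion.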
A general note: In TR-FRET formats the signal depends on donor and acceptor labels being close together.

Data set [3] addresses T4, BCRP (BCRP-MDCKII monolayer) (Homo sapiens, UniProt Q9UNQ0).
T4 construct: host or cells: MDCKII (canine kidney) cells
T4 sequence (Q9UNQ0 1-655): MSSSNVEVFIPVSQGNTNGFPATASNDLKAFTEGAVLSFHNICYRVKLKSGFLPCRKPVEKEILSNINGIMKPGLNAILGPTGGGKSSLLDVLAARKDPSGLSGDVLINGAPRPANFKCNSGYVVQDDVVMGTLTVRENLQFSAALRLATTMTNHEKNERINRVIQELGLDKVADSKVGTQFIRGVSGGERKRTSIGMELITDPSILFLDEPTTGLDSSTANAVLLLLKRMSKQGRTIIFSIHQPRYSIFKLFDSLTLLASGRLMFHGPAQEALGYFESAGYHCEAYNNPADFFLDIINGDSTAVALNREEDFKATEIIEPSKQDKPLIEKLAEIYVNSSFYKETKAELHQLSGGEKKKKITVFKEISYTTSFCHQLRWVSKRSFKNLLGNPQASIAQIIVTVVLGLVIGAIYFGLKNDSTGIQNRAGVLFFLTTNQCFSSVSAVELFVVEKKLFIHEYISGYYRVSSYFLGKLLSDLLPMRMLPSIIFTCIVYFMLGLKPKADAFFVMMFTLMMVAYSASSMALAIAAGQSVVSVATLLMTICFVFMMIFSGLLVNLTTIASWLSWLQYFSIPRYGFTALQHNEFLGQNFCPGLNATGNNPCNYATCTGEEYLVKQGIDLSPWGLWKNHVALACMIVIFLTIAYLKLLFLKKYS
In words: MDCKII-BCRP bidirectional transport assay. The format is in vitro ADME. The following applies: for MDCK-BCRP: Papp A-B: apical to basolateral. Put shortly: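 Bidirectional A→B and B→A transport across PreadyPort BCRP-MDCKII monolayers (days 12–15) was run in duplicate for 120 min at 37° C, 5% CO2 after a 15 min preincubation. Compound levels were measured by LC-MS/MS. Papp and recovery were calculated, with efflux ratio indicating transporter engagement.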

Molecules are shown by their SMILES. A value given as a limit tells only on which side of the number the result lay.

On to `COC(=O)N1CC(c2nc(-c3ccc(C)c(NC(=O)c4cnn5ccc(C#N)cc45)c3)no2)C1` [Compound I-265], for which, in “Kinetic solubility assay”, the “Solubility (μM)” value was “** (a solubility greater than 10 μM and less than or equal to 50 μM)”. The IC50 (in general, the concentration at which inhibition is half-maximal) at wtKIT [1] lay in the range of 50 to 500 nM; on PDGFRα, 5000 to 30000 nM; at CSF-1R, 5000 to 30000 nM; at wtKIT [2], 50 to 500 nM. Moreover, the “MDCK-BCRP: Efflux Ratio” value in data set [3] is 19.4. Moreover, in data set [3], the “MDCK-BCRP: Papp A-B” value is recorded as 1 10^−6 cm/s.
On to `Cc1nc(-c2ccc(C)c(NC(=O)c3cnc4ccc(N)cn34)c2)no1` [Compound I-219], for which, in the data set “Kinetic solubility assay”, the “Solubility (μM)” value was “*** (a solubility greater than 2 μM and less than or equal to 10 μM)”. The IC50 on wtKIT [1] was not above 50 nM; at PDGFRα, 500 to 5000 nM; on CSF-1R it was 50 to 500 nM; at wtKIT [2] it was not above 50 nM. Further, the “MDCK-BCRP: Efflux Ratio” value in data set [3] worked out at 37. The “MDCK-BCRP: Papp A-B” value in data set [3] is 0.79 10^−6 cm/s.
For the compound `COC(=O)N1CC(c2nc(-c3ccc(C)c(NC(=O)c4cnc5cc(OCCO)ccn45)c3)no2)C1` [Compound I-264], in “Kinetic solubility assay”, the “Solubility (μM)” value is “** (a solubility greater than 10 μM and less than or equal to 50 μM)”. Further, the IC50 was not above 50 nM at wtKIT [1], 50 to 500 nM against PDGFRα, not above 50 nM against CSF-1R and not above 50 nM at wtKIT [2]. Moreover, the “MDCK-BCRP: Efflux Ratio” value in data set [3] came to 24.2. The “MDCK-BCRP: Papp A-B” value in data set [3] is reported as 0.71 10^−6 cm/s.
On to `COC(=O)N1CC(c2nc(-c3ccc(C)c(NC(=O)c4cnc5cc(OC(C)(C)CO)ccn45)c3)no2)C1` [Compound I-228], for which the “Solubility (μM)” value in the data set “Kinetic solubility assay” was “** (a solubility greater than 10 μM and less than or equal to 50 μM)”. Moreover, the IC50 at wtKIT [1] was not above 50 nM; at PDGFRα, 50 to 500 nM; against CSF-1R, not above 50 nM; on wtKIT [2], 50 to 500 nM. Moreover, in data set [3], the “MDCK-BCRP: Efflux Ratio” value is recorded as 22.9. In addition, the “MDCK-BCRP: Papp A-B” value in data set [3] is 1.08 10^−6 cm/s.
With `COC1(C(F)F)CC(c2nc(-c3ccc(C)c(NC(=O)c4cnc5ccccn45)c3)no2)C1` (stereo not shown) [Compound I-325], the “Solubility (μM)” value in “Kinetic solubility assay” is on record as “**** (a solubility less than or equal to 2 μM)”. Also, the IC50 on wtKIT [1] was not above 50 nM; against PDGFRα, 50 to 500 nM; against CSF-1R, not above 50 nM. For the same compound, the “MDCK-BCRP: Efflux Ratio” value in data set [3] was 1.39. Moreover, the “MDCK-BCRP: Papp A-B” value in data set [3] is listed as 11.4 10^−6 cm/s.
